Structures can show the parent of a compound that is named as a salt.

One assay concerns rats treated with Triton WR-1339. The assay is described as follows: Hypolipemic action on the rat, Triton WR-1339 method. In kind it is in vivo. Particulars: Table VI; with respect to Triton WR-1339; 2 mMoles/Kg orally. On the procedure:
The above-mentioned Triton WR-1339 method was selected. The total cholesterol, triglycerides and total lipids were determined in the serum. The amount of Triton WR-1339 administered to the animals was 300 mg/kg. The amount of piperazine 2,5-dihydroxy benzene sulfonate mono-tosylate administered was 2 mMoles/Kg orally. The letter P signifies probability.
The above-mentioned Triton WR-1339 method was selected. The total cholesterol, triglycerides and total lipids were determined in the serum. The results obtained are given in Table V. The amount of Triton WR-1339 administered to the animals was 300 mg/Kg. The amount of the piperazine salt with one mole of the di-0-(p-chloro phenoxy isobutyrate) of 2,5-dihydroxy benzene sulfonic acid administered was 1 mMol/Kg orally. The letter P signifies probability.
In this Triton WR-1339 method, all the compounds are administered at a dose of 2 mMoles/Kg orally excepted those compounds in which is the residue of p-chlorophenoxy isobutyric acid, which are administered orally at a dose corresponding to 2 mMoles of R per Kg, i.e. the amount used is calculated on the basis of the residue R only.
Turning to `O=C(Oc1ccc(OC(=O)c2ccccc2)c(S(=O)(=O)O)c1)c1ccccc1` [diethylamine 2,5-dihydroxybenzenesulfonate dibenzoate] [diethylamine 2.5-dihydroxybenzensulphonate dibenzoate], the “Percentage reduction of lipids: Cholesterol” value is listed as 12%, the “Percentage reduction of lipids: Total Lipids” value is recorded as 22% and the “Percentage reduction of lipids: Triglycerides” value was 14%.
Taken in the same sequence, the figures for `O=C(Oc1ccc(OC(=O)c2ccccc2)c(S(=O)(=O)O)c1)c1ccccc1` [morpholine 2,5-dihydroxybenzenesulfonate dibenzoate] [morpholine 2.5-dihydroxybenzenesulphonate dibenzoate] were 12%, 21% and 17%.
As for `O=C(Oc1ccc(OC(=O)c2ccccc2)c(S(=O)(=O)O)c1)c1ccccc1` [piperazine 2,5-dihydroxybenzenesulfonate dibenzoate] [piperazine 2.5-dihydroxybenzenesulphonatedibenzoate], the “Percentage reduction of lipids: Cholesterol” value is 13%, the “Percentage reduction of lipids: Total Lipids” value was 20% and the “Percentage reduction of lipids: Triglycerides” value is 18%.
In the case of `O=C(Oc1ccc(OC(=O)c2ccccc2)c(S(=O)(=O)O)c1)c1ccccc1` [piperazine bis(2,5-dihydroxybenzene sulfonate dibenzoate)] [piperazine bis(2.5-dihydroxybenzenesulphonate dibenzoate)], the “Percentage reduction of lipids: Cholesterol” value was 9%, the “Percentage reduction of lipids: Total Lipids” value is recorded as 16% and the “Percentage reduction of lipids: Triglycerides” value came out at 14%.
Take `Cc1ccc(S(=O)(=O)Oc2ccc(O)c(S(=O)(=O)O)c2)cc1` [piperazine bis(2,5-dihydroxybenzenesulfonate monotosylate)] [piperazine bis(2.5-dihydroxybenzenesulphonate monotosylate)]: the “Percentage reduction of lipids: Cholesterol” value is listed as 11%, the “Percentage reduction of lipids: Total Lipids” value is 17% and the “Percentage reduction of lipids: Triglycerides” value stood at 25%.
The corresponding values for `O=C(Oc1ccc(OC(=O)c2ccccc2)c(S(=O)(=O)O)c1)c1ccccc1` [piperidine 2,5-dihydroxybenzenesulfonate dibenzoate] [piperidine 2.5-dihydroxybenzenesulphonate dibenzoate] are 14%, 23% and 19%.
The corresponding values for `Cc1ccc(S(=O)(=O)Oc2ccc(O)c(S(=O)(=O)O)c2)cc1` [piperidine bis(2,5-dihydroxybenzenesulfonate monotosylate)] [piperidine 2.5-dihydroxybenzenesulphonate monotosylate] are 15%, 33% and 26%.
Consider `O=C(Oc1ccc(O)c(S(=O)(=O)O)c1)c1cccnc1` [pyridine 2,5-dihydroxybenzene sulfonate mono nicotinate], for which the “Percentage reduction of lipids: Cholesterol” value is listed as 17%, the “Percentage reduction of lipids: Total Lipids” value came out at 25% and the “Percentage reduction of lipids: Triglycerides” value turned out to be 24%.
On to `O=C(Oc1ccc(OC(=O)c2ccccc2)c(S(=O)(=O)O)c1)c1ccccc1` [sodium 2,5-dihydroxybenzenesulfonate dibenzoate] [sodium 2.5-dihydroxybenzenesulphonate dibenzoate], for which the “Percentage reduction of lipids: Cholesterol” value stood at 12%, the “Percentage reduction of lipids: Total Lipids” value came out at 20% and the “Percentage reduction of lipids: Triglycerides” value turned out to be 17%.
For `Cc1ccc(S(=O)(=O)Oc2ccc(O)c(S(=O)(=O)O)c2)cc1` [sodium 2,5-dihydroxybenzenesulfonate monotosylate] [sodium 2,5-dihydroxy benzene sulfonate mono-tosylate], the “Percentage reduction of lipids: Cholesterol” value is 10%, the “Percentage reduction of lipids: Total Lipids” value was 39% and the “Percentage reduction of lipids: Triglycerides” value is 36%.

Still in this assay, the particulars now being: Table VI; with respect to Triton WR-1339; orally, 2 mMoles of R (p-chlorophenoxy isobutyric acid residue) per Kg.
As to `CC(C)(Oc1ccc(Cl)cc1)C(=O)Oc1ccc(OC(=O)C(C)(C)Oc2ccc(Cl)cc2)c(S(=O)(=O)O)c1` [calcium salt of di-O-(p-chloro phenoxy isobutyrate) of 2,5-d] [calcium salt of di-O-(p-chlorophenoxy isobutyrate) of 2,5-dihydroxy benzene sulfonic acid], the “Percentage reduction of lipids: Cholesterol” value amounted to 27%, the “Percentage reduction of lipids: Total Lipids” value is 29% and the “Percentage reduction of lipids: Triglycerides” value was 33%.
Taken in the same sequence, the figures for `CC(C)(Oc1ccc(Cl)cc1)C(=O)Oc1ccc(O)c(S(=O)(=O)O)c1` [calcium salt of mono-O-(p-chloro phenoxy isobutyrate) of 2,5] [calcium salt of mono-O-(p-chlorophenoxy isobutyrate) of 2,5-dihydroxybenzene sulfonic acid] were 27%, 26% and 40%.
In the case of `CC(C)(Oc1ccc(Cl)cc1)C(=O)Oc1ccc(O)c(S(=O)(=O)O)c1` [di-salt of piperazine of mono-O-(p-chloro phenoxy isobutyrat] [di-salt of piperazine of mono-O-(p-chlorophenoxy isobutyrate) of 2,5-dihydroxy benzene sulfonic acid], the “Percentage reduction of lipids: Cholesterol” value worked out at 16%, the “Percentage reduction of lipids: Total Lipids” value worked out at 26% and the “Percentage reduction of lipids: Triglycerides” value was determined as 31%.
Taken in the same sequence, the figures for `CC(C)(Oc1ccc(Cl)cc1)C(=O)Oc1ccc(O)c(S(=O)(=O)O)c1` [magnesium salt of mono-O-(p-chloro phenoxy isobutyrate) of 2] [magnesium salt of mono-O-(p-chlorophenoxy isobutyrate) of 2,5-dihydroxy benzene sulfonic acid] were 19%, 28% and 44%.
As for `CC(C)(Oc1ccc(Cl)cc1)C(=O)Oc1ccc(O)c(S(=O)(=O)O)c1` [mono-salt of piperazine of mono-O-(p-chloro phenoxy isobutyr] [mono-salt of piperazine of mono-O-(p-chlorophenoxy isobutyrate) of 2,5-dihydroxy benzene sulfonic acid], the “Percentage reduction of lipids: Cholesterol” value is given as 9%, the “Percentage reduction of lipids: Total Lipids” value amounted to 25% and the “Percentage reduction of lipids: Triglycerides” value was 49%.
On to `CC(C)(Oc1ccc(Cl)cc1)C(=O)Oc1ccc(OC(=O)C(C)(C)Oc2ccc(Cl)cc2)c(S(=O)(=O)O)c1` [piperazine di-salt of di-O-(p-chloro phenoxy isobutyrate) of] [piperazine di-salt of di-O-(p-chlorophenoxy isobutyrate) of 2,5-dihydroxy benzene sulfonic acid], for which the “Percentage reduction of lipids: Cholesterol” value was 29%, the “Percentage reduction of lipids: Total Lipids” value is recorded as 37% and the “Percentage reduction of lipids: Triglycerides” value came to 21%.
The corresponding values for `CC(C)(Oc1ccc(Cl)cc1)C(=O)Oc1ccc(OC(=O)C(C)(C)Oc2ccc(Cl)cc2)c(S(=O)(=O)O)c1` [piperazine mono-salt of di-O-(p-chloro phenoxy isobutyrate) ] [piperazine mono-salt of di-O-(p-chlorophenoxy isobutyrate) of 2,5-dihydroxy benzene sulfonic acid] are 25%, 28% and 49%.
For the molecule `CC(C)(Oc1ccc(Cl)cc1)C(=O)Oc1ccc(O)c(S(=O)(=O)O)c1` [pyridine 2,5-dihydroxybenzenesulfonate mono-p-chloro phenoxy] [mono-p-chloro phenoxy isobutyrate of pyridine 2,5-dihydroxy benzene sulfonate], the “Percentage reduction of lipids: Cholesterol” value was 16%, the “Percentage reduction of lipids: Total Lipids” value is reported as 23% and the “Percentage reduction of lipids: Triglycerides” value was determined as 27%.
Taken in the same sequence, the figures for `CC(C)(Oc1ccc(Cl)cc1)C(=O)Oc1ccc(OC(=O)C(C)(C)Oc2ccc(Cl)cc2)c(S(=O)(=O)O)c1` [pyridine salt of di-O-(p-chloro phenoxy isobutyrate) of 2,5-] [pyridine salt of the di-O-(p-chlorophenoxy isobutyrate) of 2,5-dihydroxy benzene sulfonic acid] were 20%, 31% and 32%.

Staying with this assay, now noted: Table VI; with respect to Triton WR-1339; orally, 2 mMoles of R (p-chlorophenoxy isobutyric acid residue) per Kg; dihydrate.
With `CC(C)(Oc1ccc(Cl)cc1)C(=O)Oc1ccc(O)cc1S(=O)(=O)O` [magnesium 2-O-(p-chlorophenoxyisobutyryl) 2,5-dihydroxybenzene sulfonate dihydrate], the “Percentage reduction of lipids: Cholesterol” value is listed as 18%, the “Percentage reduction of lipids: Total Lipids” value worked out at 27% and the “Percentage reduction of lipids: Triglycerides” value is 21%.

The assay is the same for the next values; noted with them: Triton 300 mg/Kg + compound 1 mMol/Kg orally; 0,0025<P<0,005.
In the case of `CC(C)(Oc1ccc(Cl)cc1)C(=O)Oc1ccc(OC(=O)C(C)(C)Oc2ccc(Cl)cc2)c(S(=O)(=O)O)c1` [piperazine mono-salt of di-O-(p-chloro phenoxy isobutyrate) ] [piperazine mono-salt of di-O-(p-chlorophenoxy isobutyrate) of 2,5-dihydroxy benzene sulfonic acid], the total cholesterol was 212,5 mg % ml of plasma.

Staying with this assay, now noted: Triton 300 mg/Kg + compound 1 mMol/Kg orally; 0,005<P<0,010.
In the case of `CC(C)(Oc1ccc(Cl)cc1)C(=O)Oc1ccc(OC(=O)C(C)(C)Oc2ccc(Cl)cc2)c(S(=O)(=O)O)c1` [piperazine mono-salt of di-O-(p-chloro phenoxy isobutyrate) ] [piperazine mono-salt of di-O-(p-chlorophenoxy isobutyrate) of 2,5-dihydroxy benzene sulfonic acid], the total lipids was 1503,8 mg % ml of plasma and the triglycerides was 572,5 mg % ml of plasma.

Source of the values: patent publication US3954767A, “Piperazine salts of 2,5-dihydroxy benzene sulfonic acid mono- and diesters” (priority 1972, dated 1976).
